Results as given in PubChem BioAssay (NCI).
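Test compounds were applied to cells in 96-well plates for 48 hours at 5 doses. At the TGI there is no net growth.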

What was measured:
Test in all cases: NCI-60 cell line screen, 48 h
EKVX NSCLC = system: EKVX NSCLC
HCT-15 colon = system: HCT-15 colon
HOP-62 NSCLC = system: HOP-62 NSCLC
HOP-92 NSCLC = system: HOP-92 NSCLC
HS 578T breast = system: HS 578T breast
HT29 colon = system: HT29 colon
IGROV1 ovarian = system: IGROV1 ovarian
M14 melanoma = system: M14 melanoma
MALME-3M melanoma = system: MALME-3M melanoma
MDA-MB-435 = system: MDA-MB-435
MOLT-4 leukemia = system: MOLT-4 leukemia
OVCAR-3 ovarian = system: OVCAR-3 ovarian
OVCAR-5 ovarian = system: OVCAR-5 ovarian
SK-MEL-2 melanoma = system: SK-MEL-2 melanoma
SK-MEL-5 melanoma = system: SK-MEL-5 melanoma
SR leukemia = system: SR leukemia
TK-10 renal = system: TK-10 renal
UO-31 renal = system: UO-31 renal

Row | Compound | TGI (EKVX NSCLC) [µM] | TGI (HCT-15 colon) [µM] | TGI (HOP-62 NSCLC) [µM] | TGI (HOP-92 NSCLC) [µM] | TGI (HS 578T breast) [µM] | TGI (HT29 colon) [µM] | TGI (IGROV1 ovarian) [µM] | TGI (M14 melanoma) [µM] | TGI (MALME-3M melanoma) [µM] | TGI (MDA-MB-435) [µM] | TGI (MOLT-4 leukemia) [µM] | TGI (OVCAR-3 ovarian) [µM] | TGI (OVCAR-5 ovarian) [µM] | TGI (SK-MEL-2 melanoma) [µM] | TGI (SK-MEL-5 melanoma) [µM] | TGI (SR leukemia) [µM] | TGI (TK-10 renal) [µM] | TGI (UO-31 renal) [µM]
1 | NC(=O)CN1CC(C2=C(O)CN(CC(N)=O)C2=O)=CC1=O | > 100 | > 100 | > 100 | > 100 | > 100 | > 100 | > 100 | > 100 | > 100 | > 100 | > 100 | > 100 | > 100 | > 100 | > 100 | > 100 | > 100 | > 100
2 | c1ccc2c(c1)nc1n2CSCC1 | > 100 | > 100 | > 100 | > 100 | > 100 | > 100 | > 100 | > 100 | – | > 100 | > 100 | > 100 | > 100 | > 100 | > 100 | > 100 | > 100 | > 100
3 | C=C1C(=O)O[C@H]2C1C[C@@H](O)/C(C)=C/CC[C@@]1(C)O[C@H]21 (stereo partly specified) | 38.9 | 58.8 | > 95.6 | 22.9 | > 89.5 | > 57 | > 43.8 | 37.4 | 16.9 | 23.7 | 22.3 | 21.5 | > 53.8 | > 54.8 | 49.1 | 44.9 | 33.4 | > 49.6
4 | COc1cc2cc(C(=O)N3CC(CCl)c4ccc([N+](C)(C)Cc5ccc([N+](=O)[O-])cc5)cc43)[nH]c2c(OC)c1OC (stereo unspecified) | 29.3 | 31 | > 100 | 6.58 | 47 | 5.83 | – | 40.5 | 7.42 | 24 | 6.44 | 7.16 | > 100 | 5.26 | 3.31 | 2.31 | – | –
5 | C=C(Cl)/C(=C\Cl)CCC(Cl)C(C)C (stereo unspecified) | > 100 | – | > 100 | > 100 | > 100 | > 100 | > 100 | > 100 | > 100 | > 100 | > 100 | > 100 | > 100 | > 100 | > 100 | > 100 | > 100 | > 100
6 | Cn1c2c(c3ccccc31)CCN=C2C1CCCOC1=O (stereo unspecified) | > 100 | > 100 | > 100 | > 100 | > 100 | > 100 | > 100 | > 100 | > 100 | > 100 | – | > 100 | > 100 | > 100 | > 100 | > 100 | > 100 | > 100
7 | COc1ccc(C2C(C#N)=C(S)N(C3OC(COC(C)=O)C(OC(C)=O)C(OC(C)=O)C3OC(C)=O)C(C)=C2C(C)=O)cc1 (stereo unspecified) | – | > 100 | > 100 | > 100 | > 100 | > 100 | > 100 | > 100 | > 100 | > 100 | > 100 | > 100 | > 100 | > 100 | > 100 | > 100 | > 100 | > 100
8 | O/N=C(/C(Cl)=C(Cl)Cl)C(Cl)Cl | > 100 | 33.5 | 46.9 | – | 61.3 | 30.3 | 44.6 | 40.8 | 77.9 | 33.1 | 37.1 | 38.6 | 49.4 | – | 40.3 | 26.7 | 34.7 | 49
9 | COc1ccc(/C=C2\C[C@H]3[C@@H]4CC=C5C[C@@H](OC(C)=O)CC[C@]5(C)[C@H]4CC[C@]3(C)\C2=N\O)cc1OC | 27.2 | > 100 | > 100 | > 100 | > 100 | > 100 | > 100 | > 100 | > 100 | > 100 | > 100 | > 100 | > 100 | > 100 | 9.83 | > 100 | – | 91.6
10 | Cc1c2n(c3ccccc13)S(=O)(=O)c1ccccc1-2 | 35.6 | > 100 | – | 73.6 | 54.8 | 35.6 | > 100 | > 100 | > 100 | > 100 | > 100 | > 100 | > 100 | – | > 100 | > 100 | 58.2 | 41.6
11 | CCOC(=O)c1nc2ccccc2nc1NCc1ccc(OC)c(OC)c1 | > 100 | > 100 | > 100 | > 100 | > 100 | > 100 | > 100 | – | > 100 | > 100 | > 100 | > 100 | > 100 | – | > 100 | > 100 | > 100 | > 100
12 | CC(=O)N1c2ccccc2C2=NN(C)C(=N)SC21 (stereo unspecified) | > 100 | > 100 | > 100 | – | > 100 | > 100 | – | > 100 | > 100 | > 100 | > 100 | > 100 | > 100 | > 100 | – | > 100 | > 100 | > 100
13 | Cc1c[nH]c(C(=O)O)c1-c1cccn1-c1ccc(Cl)cc1[N+](=O)[O-] | > 100 | > 100 | > 100 | > 100 | > 100 | > 100 | > 100 | > 100 | – | > 100 | > 100 | > 100 | > 100 | > 100 | > 100 | > 100 | > 100 | > 100
14 | N#Cc1cc2c(cc1C#N)/C(=N\c1cccc(N)n1)N=C2Nc1cccc(N)n1 | > 100 | 76.5 | 70.2 | – | > 100 | 85.7 | > 100 | 34.1 | 84.1 | 59.7 | > 100 | > 100 | > 100 | > 100 | 22.1 | > 100 | 68.8 | 47
15 | C=C1CCCC(C)(C)[C@H]1C/C=C1\CCOC1=O | 30 | > 100 | 39.9 | 26.6 | 44.3 | 28 | 28.8 | 34 | 26.9 | 22 | 38.9 | 34.8 | – | > 100 | 21.8 | > 100 | 34.5 | 29.6
16 | S=C=Nc1ccc(CSc2nc3ccccc3[nH]2)cc1 | 40.4 | 28.4 | 32.1 | 32 | > 100 | 32.6 | 33.7 | – | 32 | 33.9 | 55.1 | – | 32.4 | 34.8 | 29.4 | 65.4 | 38.9 | 34.8
17 | Cc1csc(NNC(N)=O)n1 | > 100 | > 100 | > 100 | > 100 | > 100 | > 100 | > 100 | > 100 | – | > 100 | > 100 | > 100 | > 100 | > 100 | > 100 | > 100 | > 100 | > 100
18 | O=C1c2c(ccc3c2CCC3)CC1Cc1ccc2c(c1)CCC2 (stereo unspecified) | > 100 | > 100 | 94.2 | – | 61.6 | 60.9 | > 100 | > 100 | > 100 | 92.4 | 51.6 | > 100 | > 100 | 73.8 | 27.9 | 30.9 | > 100 | > 100
19 | c1csc(-c2nccc3c2[nH]c2ccccc23)c1 | 84.9 | 48.1 | 39.2 | 41.5 | > 100 | 29.3 | 37.4 | 31.6 | 47.2 | 32.2 | 51.5 | 49.4 | 85.5 | 41.8 | 31.4 | 48 | 48.7 | –
20 | N#CCCN(CCC#N)c1ccc(C(N=Nc2ccc(Cl)cc2)=Nc2ccccc2)cc1 | 24.4 | 21.2 | 28.2 | 32.3 | 35 | 34.3 | 24.6 | 26.9 | – | 27.5 | 89.4 | 22.1 | 26 | 13.9 | 5.13 | > 100 | 29.1 | 21.3
21 | CN(C)CCNCc1ccc2c(-c3ccccc3)nc3cc(Cl)c(Cl)cc3n12 | 30.2 | 23.2 | 27.4 | 28.3 | 47.6 | 16.7 | 22.6 | 15.3 | 33.1 | 21.9 | 21.6 | 35.9 | 26.1 | 20.6 | 16.4 | – | 22.2 | 14.7
22 | COc1cc2oc(=O)cc(C)c2c(OC)c1O | > 100 | > 100 | > 100 | – | 65 | > 100 | > 100 | > 100 | > 100 | > 100 | > 100 | > 100 | > 100 | > 100 | > 100 | > 100 | > 100 | > 100
23 | CO/N=C(/C)c1cccc(Nc2nc3ccc(Cl)cc3c3[nH]c4ccccc4c23)c1 | – | 27.1 | 24.4 | 21 | 45.8 | – | 29.4 | 20.7 | – | 21.4 | 7.91 | 18.5 | 23.7 | 26.9 | 16.9 | 14.6 | – | 21.7
24 | N#Cc1c(C#N)c(-c2ccccc2)n(Cc2ccccc2)c1N | > 100 | > 100 | > 100 | – | > 100 | > 100 | > 100 | > 100 | > 100 | > 100 | > 100 | > 100 | > 100 | > 100 | > 100 | > 100 | > 100 | > 100
25 | CNCCN[C@@H]1c2cc3c(cc2[C@@H](c2cc(OC)c(O)c(OC)c2)[C@H]2C(=O)OC[C@@H]21)OCO3 | 22.7 | 98.7 | 0.678 | – | 1.34 | 1.89 | 2.63 | 4.68 | 1.83 | 6.32 | 0.0587 | 4.17 | 4.63 | 1.79 | 1.16 | 0.287 | 8.21 | 4.96
26 | COc1cccc2c1C1(O)C2CCCCCCCCCC12OCCCO2 (stereo unspecified) | – | > 100 | > 100 | – | > 100 | > 59.2 | > 100 | > 100 | > 100 | > 100 | > 100 | > 81 | > 100 | > 73.2 | > 100 | 35.6 | > 100 | > 100
27 | Cn1nc2ccc([N+](=O)[O-])cc2[n+]1[O-] | > 100 | > 100 | > 100 | – | > 100 | > 100 | > 100 | > 100 | > 100 | > 100 | > 100 | > 100 | > 100 | > 100 | > 100 | > 100 | > 100 | > 100
28 | CC(=O)NC1C(OC(C)C(=O)NC(C(=O)NC(CCC(=O)NCCCNC2c3ccccc3Nc3cccc([N+](=O)[O-])c32)C(N)=O)C(C)C)C(O)C(CO)OC1(C)OCc1ccccc1 (stereo unspecified) | 3.43 | 1.97 | 5.87 | – | 4.75 | 0.417 | 3.2 | 12.2 | 2.69 | 2.77 | 2.6 | 2.85 | 9.44 | 3.56 | 0.405 | 0.634 | 0.695 | 2.73
